Data: ChEMBL document CHEMBL5465560, “Selectivity Literature for EUbOPEN Chemogenomic Library” (2024)

Tests used:
[1] = target: Cyclin-C/Cyclin-dependent kinase 19 (Homo sapiens) (UniProt Q9BWU1+P24863); test: Selectivity interaction (ProQinase) EUB0000171b CDK19; assay type: protein-complex assay
[2] = target: Serine/threonine-protein kinase 38-like (Homo sapiens) (UniProt Q9Y2H1); test: Selectivity interaction (Kinase panel (DSF assay)) EUB0001559a STK38L
[3] = target: STE20-like serine/threonine-protein kinase (Homo sapiens, UniProt Q9H2G2); test: Selectivity interaction (LanthaScreen Eu Kinase Binding Assay) EUB0001632a SLK; conditions: at 10 µM
STE20-like serine/threonine-protein kinase, sequence (Q9H2G2 whole entry, looked up): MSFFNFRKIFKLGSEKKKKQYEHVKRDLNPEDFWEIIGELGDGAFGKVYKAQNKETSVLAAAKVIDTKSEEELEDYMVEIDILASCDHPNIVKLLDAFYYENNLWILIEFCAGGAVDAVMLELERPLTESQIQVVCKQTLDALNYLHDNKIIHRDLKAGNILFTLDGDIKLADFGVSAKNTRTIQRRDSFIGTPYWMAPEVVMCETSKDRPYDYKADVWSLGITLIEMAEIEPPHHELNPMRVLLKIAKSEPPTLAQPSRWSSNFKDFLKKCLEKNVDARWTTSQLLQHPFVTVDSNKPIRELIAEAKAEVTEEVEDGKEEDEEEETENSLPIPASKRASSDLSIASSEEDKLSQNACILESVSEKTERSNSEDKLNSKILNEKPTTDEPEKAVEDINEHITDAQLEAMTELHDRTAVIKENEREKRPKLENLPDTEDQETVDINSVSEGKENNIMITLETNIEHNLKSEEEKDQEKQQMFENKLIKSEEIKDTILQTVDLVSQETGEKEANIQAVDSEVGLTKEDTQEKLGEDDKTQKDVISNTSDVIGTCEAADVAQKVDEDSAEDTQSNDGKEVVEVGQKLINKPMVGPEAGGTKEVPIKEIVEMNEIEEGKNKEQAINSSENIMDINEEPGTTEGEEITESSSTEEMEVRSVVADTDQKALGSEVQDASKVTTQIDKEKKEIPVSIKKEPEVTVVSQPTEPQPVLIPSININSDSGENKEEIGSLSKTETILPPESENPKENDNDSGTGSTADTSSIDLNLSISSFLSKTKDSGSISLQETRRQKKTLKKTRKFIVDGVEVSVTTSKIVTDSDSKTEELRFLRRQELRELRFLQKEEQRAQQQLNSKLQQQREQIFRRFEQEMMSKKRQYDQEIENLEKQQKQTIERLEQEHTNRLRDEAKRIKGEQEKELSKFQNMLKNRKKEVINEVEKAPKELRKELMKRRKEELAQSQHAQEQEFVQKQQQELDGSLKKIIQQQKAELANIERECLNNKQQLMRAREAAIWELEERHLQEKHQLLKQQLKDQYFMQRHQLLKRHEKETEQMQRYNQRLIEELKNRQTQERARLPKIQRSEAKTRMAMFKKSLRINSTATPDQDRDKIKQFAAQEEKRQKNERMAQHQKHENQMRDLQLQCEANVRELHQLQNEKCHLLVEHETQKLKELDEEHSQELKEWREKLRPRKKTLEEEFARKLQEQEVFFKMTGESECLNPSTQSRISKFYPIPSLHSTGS

Activated CDC42 kinase 1 = Activated CDC42 kinase 1 (Homo sapiens, UniProt Q07912); test: Selectivity interaction (Kinase panel (Invitrogen)) EUB0000639a TNK2; conditions: at 200 nM
Activated CDC42 kinase 1, sequence (Q07912 whole entry, looked up): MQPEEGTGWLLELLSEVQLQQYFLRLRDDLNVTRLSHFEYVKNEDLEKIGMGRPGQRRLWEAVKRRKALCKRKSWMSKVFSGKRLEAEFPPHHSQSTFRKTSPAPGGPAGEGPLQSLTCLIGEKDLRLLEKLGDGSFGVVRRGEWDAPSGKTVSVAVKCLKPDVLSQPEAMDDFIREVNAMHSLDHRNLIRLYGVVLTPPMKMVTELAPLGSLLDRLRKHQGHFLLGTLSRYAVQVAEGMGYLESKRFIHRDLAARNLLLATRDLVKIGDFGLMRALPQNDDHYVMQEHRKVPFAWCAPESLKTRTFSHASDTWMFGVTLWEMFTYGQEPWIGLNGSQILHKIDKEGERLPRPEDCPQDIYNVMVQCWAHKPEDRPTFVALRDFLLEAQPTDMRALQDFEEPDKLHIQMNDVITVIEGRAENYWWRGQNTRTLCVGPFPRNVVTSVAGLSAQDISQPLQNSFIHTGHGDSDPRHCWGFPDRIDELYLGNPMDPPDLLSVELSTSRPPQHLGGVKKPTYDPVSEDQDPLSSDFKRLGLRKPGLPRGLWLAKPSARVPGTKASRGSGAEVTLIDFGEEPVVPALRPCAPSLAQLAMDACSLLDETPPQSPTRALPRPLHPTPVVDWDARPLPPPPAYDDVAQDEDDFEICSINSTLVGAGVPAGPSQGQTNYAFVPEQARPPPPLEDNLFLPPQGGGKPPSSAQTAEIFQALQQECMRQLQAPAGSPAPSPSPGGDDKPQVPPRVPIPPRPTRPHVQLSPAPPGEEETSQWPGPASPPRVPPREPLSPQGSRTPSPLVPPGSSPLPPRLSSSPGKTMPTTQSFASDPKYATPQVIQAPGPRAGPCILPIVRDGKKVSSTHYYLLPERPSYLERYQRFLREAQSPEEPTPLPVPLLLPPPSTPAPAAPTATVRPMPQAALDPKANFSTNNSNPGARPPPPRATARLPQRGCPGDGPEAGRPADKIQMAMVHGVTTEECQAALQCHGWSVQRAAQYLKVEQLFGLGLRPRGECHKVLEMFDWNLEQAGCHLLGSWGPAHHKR

[4] = target: Ribosomal protein S6 kinase alpha-2 (Homo sapiens) (UniProt Q15349); test: Selectivity interaction (ActivX KiNativ screen (kinase selectivity in THP-1 cell lysates)) EUB0000639a RPS6KA2; assay type: subcellular; conditions: lysate, at 0.2 µM
Ribosomal protein S6 kinase alpha-2 (Homo sapiens), sequence (Q15349 whole entry): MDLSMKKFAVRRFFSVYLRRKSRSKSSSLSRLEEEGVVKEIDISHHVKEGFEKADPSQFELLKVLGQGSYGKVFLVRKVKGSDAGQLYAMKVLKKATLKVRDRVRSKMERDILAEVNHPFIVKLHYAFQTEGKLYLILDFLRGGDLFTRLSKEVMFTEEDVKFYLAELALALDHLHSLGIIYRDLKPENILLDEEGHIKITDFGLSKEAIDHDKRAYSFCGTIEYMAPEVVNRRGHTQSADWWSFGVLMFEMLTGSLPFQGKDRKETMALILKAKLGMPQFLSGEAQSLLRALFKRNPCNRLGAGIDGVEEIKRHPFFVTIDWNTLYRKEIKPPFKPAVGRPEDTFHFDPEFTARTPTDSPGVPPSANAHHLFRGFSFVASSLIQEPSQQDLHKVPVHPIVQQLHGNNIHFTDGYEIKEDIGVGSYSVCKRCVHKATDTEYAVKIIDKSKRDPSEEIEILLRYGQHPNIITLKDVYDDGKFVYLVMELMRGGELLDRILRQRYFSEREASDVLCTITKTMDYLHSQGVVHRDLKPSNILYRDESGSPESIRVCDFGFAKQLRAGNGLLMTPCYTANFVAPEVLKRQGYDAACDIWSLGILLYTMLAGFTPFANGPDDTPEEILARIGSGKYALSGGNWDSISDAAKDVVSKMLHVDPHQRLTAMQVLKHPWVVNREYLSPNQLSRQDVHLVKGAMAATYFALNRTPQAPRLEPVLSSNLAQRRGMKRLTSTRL

[5] = target: Ribosomal protein S6 kinase beta-1 (Homo sapiens, UniProt P23443); test: Selectivity interaction (ActivX KiNativ screen (kinase selectivity in THP-1 cell lysates)) EUB0000639a RPS6KB1; assay type: subcellular; conditions: lysate, at 0.04 µM
Ribosomal protein S6 kinase beta-1, sequence (P23443 whole entry, looked up): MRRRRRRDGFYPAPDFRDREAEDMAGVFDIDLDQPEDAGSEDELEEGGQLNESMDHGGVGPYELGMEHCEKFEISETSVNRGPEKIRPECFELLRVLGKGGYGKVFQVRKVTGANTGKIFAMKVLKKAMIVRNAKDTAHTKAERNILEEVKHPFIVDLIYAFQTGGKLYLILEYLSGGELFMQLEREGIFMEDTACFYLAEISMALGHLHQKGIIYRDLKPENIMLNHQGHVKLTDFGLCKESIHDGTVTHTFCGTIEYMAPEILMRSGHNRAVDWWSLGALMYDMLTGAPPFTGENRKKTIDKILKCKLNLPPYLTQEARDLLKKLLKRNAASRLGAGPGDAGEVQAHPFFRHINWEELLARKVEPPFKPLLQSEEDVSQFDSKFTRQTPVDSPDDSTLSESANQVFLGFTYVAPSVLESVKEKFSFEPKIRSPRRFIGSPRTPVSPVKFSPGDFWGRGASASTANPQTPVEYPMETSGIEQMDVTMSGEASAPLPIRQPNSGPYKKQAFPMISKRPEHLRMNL

[6] = target: T1, Serine/threonine-protein kinase 36 (Homo sapiens) (UniProt Q9NRP7); test: Selectivity interaction (KinomeScan (DiscoverX)) EUB0001049a STK36; conditions: at 1 µM
T1 sequence (whole entry): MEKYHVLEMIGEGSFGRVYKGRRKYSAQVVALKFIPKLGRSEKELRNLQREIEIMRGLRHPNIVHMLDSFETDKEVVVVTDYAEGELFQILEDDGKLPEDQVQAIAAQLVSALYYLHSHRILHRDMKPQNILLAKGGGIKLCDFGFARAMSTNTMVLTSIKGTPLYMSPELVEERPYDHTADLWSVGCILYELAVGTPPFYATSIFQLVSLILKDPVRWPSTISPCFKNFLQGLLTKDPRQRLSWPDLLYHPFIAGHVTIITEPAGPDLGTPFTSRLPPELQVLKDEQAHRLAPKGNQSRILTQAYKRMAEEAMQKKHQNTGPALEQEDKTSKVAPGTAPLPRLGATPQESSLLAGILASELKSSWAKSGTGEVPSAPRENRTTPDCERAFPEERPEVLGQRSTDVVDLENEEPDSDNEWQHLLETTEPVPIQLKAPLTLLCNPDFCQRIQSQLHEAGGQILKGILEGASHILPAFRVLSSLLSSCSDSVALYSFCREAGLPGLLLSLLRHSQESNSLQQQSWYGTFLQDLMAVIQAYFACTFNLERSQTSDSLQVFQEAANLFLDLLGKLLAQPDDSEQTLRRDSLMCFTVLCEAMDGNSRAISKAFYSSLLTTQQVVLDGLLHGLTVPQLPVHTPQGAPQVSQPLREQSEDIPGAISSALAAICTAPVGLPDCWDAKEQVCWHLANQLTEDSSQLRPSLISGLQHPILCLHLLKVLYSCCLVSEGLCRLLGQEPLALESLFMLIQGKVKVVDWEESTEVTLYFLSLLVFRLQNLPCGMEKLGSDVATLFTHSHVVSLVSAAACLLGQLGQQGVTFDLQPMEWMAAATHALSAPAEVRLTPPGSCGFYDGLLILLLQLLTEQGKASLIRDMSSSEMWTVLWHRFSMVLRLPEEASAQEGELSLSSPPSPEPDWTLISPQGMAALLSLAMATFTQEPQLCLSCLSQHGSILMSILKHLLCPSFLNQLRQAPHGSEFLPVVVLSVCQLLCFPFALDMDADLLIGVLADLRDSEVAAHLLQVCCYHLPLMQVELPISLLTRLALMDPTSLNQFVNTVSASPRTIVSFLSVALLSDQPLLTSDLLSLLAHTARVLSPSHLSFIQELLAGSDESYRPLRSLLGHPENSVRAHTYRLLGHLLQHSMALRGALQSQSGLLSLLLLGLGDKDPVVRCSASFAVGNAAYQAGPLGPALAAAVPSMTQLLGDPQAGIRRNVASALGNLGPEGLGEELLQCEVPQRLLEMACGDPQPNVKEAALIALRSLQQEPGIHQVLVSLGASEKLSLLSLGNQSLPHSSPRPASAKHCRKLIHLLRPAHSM

[7] = target: Non-receptor tyrosine-protein kinase TYK2 (Homo sapiens, UniProt P29597); test: Selectivity interaction (KinomeScan (DiscoverX)) EUB0000595a TYK2; conditions: at 10 µM
[8] = target: T2, Mitogen-activated protein kinase kinase kinase 13 (Homo sapiens) (UniProt O43283); test: Selectivity interaction (KinomeScan (DiscoverX)) EUB0000595a MAP3K13; conditions: at 10 µM
T2 sequence (whole entry): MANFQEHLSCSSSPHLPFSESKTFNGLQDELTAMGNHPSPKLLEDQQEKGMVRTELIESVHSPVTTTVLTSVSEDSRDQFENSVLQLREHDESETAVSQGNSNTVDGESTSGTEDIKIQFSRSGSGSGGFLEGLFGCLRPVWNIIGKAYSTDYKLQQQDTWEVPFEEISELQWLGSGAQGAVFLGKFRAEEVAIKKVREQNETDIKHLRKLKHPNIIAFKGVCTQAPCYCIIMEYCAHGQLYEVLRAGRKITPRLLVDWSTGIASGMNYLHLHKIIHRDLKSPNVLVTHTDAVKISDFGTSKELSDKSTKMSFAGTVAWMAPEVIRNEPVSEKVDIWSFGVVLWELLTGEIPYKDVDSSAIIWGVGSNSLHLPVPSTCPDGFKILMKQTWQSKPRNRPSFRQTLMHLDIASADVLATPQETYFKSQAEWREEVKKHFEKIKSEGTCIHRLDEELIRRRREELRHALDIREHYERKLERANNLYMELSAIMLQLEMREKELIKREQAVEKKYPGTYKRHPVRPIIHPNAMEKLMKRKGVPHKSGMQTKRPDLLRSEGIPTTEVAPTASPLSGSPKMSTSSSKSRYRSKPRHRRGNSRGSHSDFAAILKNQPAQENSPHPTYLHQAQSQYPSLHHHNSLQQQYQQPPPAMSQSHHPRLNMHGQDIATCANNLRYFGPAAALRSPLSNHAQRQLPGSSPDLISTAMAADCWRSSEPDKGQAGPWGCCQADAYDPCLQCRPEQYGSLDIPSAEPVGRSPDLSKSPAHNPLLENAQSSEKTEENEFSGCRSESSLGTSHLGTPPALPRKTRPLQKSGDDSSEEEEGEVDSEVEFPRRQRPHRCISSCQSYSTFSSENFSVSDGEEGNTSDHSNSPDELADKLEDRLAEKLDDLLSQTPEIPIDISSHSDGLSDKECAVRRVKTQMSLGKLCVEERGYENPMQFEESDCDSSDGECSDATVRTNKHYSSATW

Serine/threonine-protein kinase 38-like (Homo sapiens), sequence (Q9Y2H1 2-464 limits assumed): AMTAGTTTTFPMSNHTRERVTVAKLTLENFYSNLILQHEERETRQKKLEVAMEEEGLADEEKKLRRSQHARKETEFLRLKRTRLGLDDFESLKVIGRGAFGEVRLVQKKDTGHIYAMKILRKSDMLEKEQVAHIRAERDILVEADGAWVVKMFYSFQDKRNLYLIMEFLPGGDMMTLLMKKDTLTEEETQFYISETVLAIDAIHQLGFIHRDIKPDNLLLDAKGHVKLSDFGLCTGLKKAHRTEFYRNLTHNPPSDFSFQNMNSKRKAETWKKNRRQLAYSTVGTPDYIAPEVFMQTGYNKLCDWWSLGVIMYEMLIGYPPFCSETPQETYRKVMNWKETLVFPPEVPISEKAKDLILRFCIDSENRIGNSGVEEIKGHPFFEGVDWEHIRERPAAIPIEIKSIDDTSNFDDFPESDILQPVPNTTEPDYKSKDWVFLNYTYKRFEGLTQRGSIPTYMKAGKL

With `C=CC(=O)Nc1cccc(C(=O)Nc2ccc(Nc3cc(-c4[nH]c(SC)nc4C)ccn3)cc2)c1` the % of control ([1]; at 1 µM) was 72% and the % of control ([1]; at 5 µM) was 65%.

`CN(C(=O)c1cnn2cccnc12)c1cc2c(cc1N1CCOCC1)C(=O)N(C[C@@H](F)C(C)(C)O)C2` gave a dTM [2] of 0 K.

In the case of `Cn1cc(-n2cnc3c(NCc4nc5cc(Cl)c(Cl)cc5[nH]4)nc(N4CCOCC4)nc32)cn1`, the % of inhibition [3] is reported as -1.88%.

`CC[C@@H]1[C@H](F)C(=O)N[C@@H]1COc1nccc2cc(C(N)=O)c(OC)cc12` [ZIMLOVISERTIB] showed a % of inhibition (Activated CDC42 kinase 1) of -1.67%, a % of inhibition [4] of 2.6% and a % of inhibition [5] of 9.9%.

With `COc1cc(Nc2nc(C)cc(-c3cnn4nc(OC)ccc34)n2)cc(C(F)(F)F)c1` the % of control [6] was 99%.

With `COCC(=O)NC/C=C/c1ccc2ncnc(Nc3ccc(Oc4ccc(C)nc4)c(C)c3)c2c1` [CP-724714] the % of control [7] was 24% and the % of control [8] was 80%.
